Assay results as given in US12440582B2, “Biothiol-activatable probe and method of use” (BOARD OF REGENTS, THE UNIVERSITY OF TEXAS SYSTEM, priority 2019, dated 2025).
Structures can show the parent of a compound that is named as a salt. Values belong to the compound of their own block, whether it stands above or below them.

Tests used:
[1] = tested on: APAP-induced liver injury; assay: NAC treatment of APAP-induced liver injury (liver morphology, TUNEL); format: in vivo, mice
Method: FIGS. 44A-D. Monitoring hepatic GSH depletion in drug-induced liver injury allows early treatment and improves prognosis. (FIG. 44A) Scheme of the APAP metabolism and pathophysiology process of APAP overdose induced hepatotoxicity. Hepatic GSH depletion occurs much earlier than the death of hepatocytes and the release of serum biomarkers. (FIG. 44B) Serum ALT levels of mice (N=3) at multiple time points after receiving 300 mg/kg body weight APAP. […] (FIG. 44C) Serum ALT levels of mice (N=3) at 12 h post injection of overdose APAP with NAC treatment at different time points after APAP administration. (FIG. 44D) Representative color pictures of the liver (12 h after APAP administration) as well as fluorescent microscope images of cell death in liver tissues (detected using TUNEL assay) from APAP overdosed mice without NAC treatment or receiving NAC treatment at 30 min (early treatment) and 5.5 h (delayed treatment) after APAP administration. Cell nuclei were counter-stained with DAPI. Scale bar, 20 μm. Statistical significance is evaluated by two-sample equal variance t-test (P<0.05; statistically significant). Data points are presented as means and standard deviation.
APAP-induced liver injury animal model. Healthy male BALB/c mice were pre-fasted for 5 h and then intraperitoneally injected with APAP saline solution (˜28 mg/mL) at an overdose of 300 mg/kg body weight. […]

[2] = tested on: plasma GSH; assay: Plasma glutathione level after DEM administration; format: in vivo, BALB/c mice
Method: FIGS. 21A-B. Plasma glutathione level after DEM administration. (FIG. 21A) Plasma total glutathione (reduced GSH+2GSSG) and glutathione disulfide (GSSG) concentration at various time points after intraperitoneal injection of 1 mL/kg DEM in mice (n=3). (FIG. 21B) Plasma reduced glutathione concentration at different time was then calculated by subtracting GSSG from the total GSH concentration. The quantification of plasma total GSH and GSSG was carried out according to the established procedures (Rahman et al., 2006) via a modified Tietze enzymatic recycling assay.
Depletion of tissue GSH in vivo.

[3] = tested on: liver GSH; assay: Liver GSH level measured ex vivo (Tietze enzymatic recycling assay); format: in vivo, BALB/c mice; conditions: for hepatic GSH level: 30 min p.i.
[4] = tested on: serum GSH; assay: Serum GSH level following APAP administration; format: in vivo, mice; conditions: 2 h after APAP 300 mg/kg i.p.
Method: FIG. 54. Serum GSH level following APAP administration. […] Data reported are means and standard deviation overlapped with data points from individual mouse. Statistical significance is evaluated by two-sample equal variance t-test. P<0.05 is considered statistically significant. N=4 mice for the experiment.

[5] = Tumor targeting efficiency in MCF-7 xenograft mice; format: in vivo; conditions: nude, mouse, tumor (MCF-7 xenograft), intravenous, 24 hr p.i., read-out: tumor targeting efficiency (ICG)
From the text: Blue arrows indicate the tumors.

[6] = in vivo; conditions: nude, mouse, in vivo
From the text: (§1) FIGS. 30A-B. Decay of background tissue fluorescence signal over time. (FIG. 30A) Representative in vivo imaging of 1CG4-GS-Au25 injected mouse (72 hr p.i.) illustrating the region of interest (ROI) chosen for tumor (red dashed circle) and background tissue (yellow dashed circle) ICG fluorescence quantification. Red arrows indicate tumor location.

[7] = tested on: MCF-7 tumor; assay: in vivo; conditions: MCF-7 tumor bearing nude mice
From the text: as §1

[8] = Blood pharmacokinetics after intravenous injection; conditions: i.v.
Method: Statistical significance is evaluated using a two-sample unequal variances (Welch's) t-test (**P<0.01, ***P<0.005). Data points are reported as mean±s.d.
Both curves were fitted with two-phase exponential decay functions to obtain the weighted average half-lives.
Pharmacokinetics and biodistribution study of 1CG4-GS-Au25. […] At certain time point post-injection, blood sample (˜30 μL) was retro-orbitally collected and weighed, followed by the addition of 500 μL lysis buffer containing 20 mM cysteine (pH˜8) to liberate ICG from Au25 nanocluster and recover the quenched fluorescence of ICG. Then fluorescence of cysteine treated blood sample was measured by the in vivo imaging system to quantify ICG in blood. Afterwards, the blood sample was completely dissolved in freshly made aqua regia and the Au amount in blood was analyzed by ICP-MS.

[9] = in vivo
From the text: FIGS. 39A-E. Utilization of hepatic glutathione-mediated biotransformation to enhance tumor targeting of a cisplatin prodrug. (FIG. 39A) Scheme illustrating the rationale of designing the ICG-Cis-Pt prodrug by combining temporal serum protein binding and hepatic glutathione-mediated biotransformation to slow down the rapid renal clearance of Cis-Pt prodrug and enhance its tumor targeting efficiency while avoiding predominant accumulation in MPS. […] (FIG. 39C) Tumor targeting efficiency of Cis-Pt pro drug and ICG-Cis-Pt prodrug at 48 hr p.i. (FIG. 39D) Renal clearance profiles of Cis-Pt prodrug and ICG-Cis-Pt prodrug. […] (FIG. 39E) Biodistribution of Pt in organs at 48 hr and 7 day following intravenously injection of ICG-Cis-Pt prodrug. The accumulation of ICG-Cis-Pt in MPS as well as in other major organs is low and continues to decrease over time. Statistical significance is evaluated by two-sample t-test (**p<0.01).

Compound: CC(=O)N[C@@H](CS)C(=O)O [NAC, N-acetylcysteine]
effect on liver damage (morphology, TUNEL) ([1]; NAC at 30 min post-injection of APAP (early treatment)): almost completely reverse the liver damage
effect on liver damage (morphology, TUNEL) ([1]; NAC at 5.5 h after APAP overdose (delayed treatment)): severe hemorrhage on the liver tissue as well as the pervasive death of liver cells

Compound: CCOC(=O)/C=C\C(=O)OCC [DEM, diethyl maleate]
duration of low plasma GSH level before recovery ([2]; single injection of DEM): 2 to 3 h
plasma GSH level, of the initial value ([2]; single intraperitoneal injection of DEM, 1 mL/kg): ~12%
liver GSH level ([3]; 0.3 mg/kg body weight DEM, intraperitoneal): ~3.1 μmole/g liver tissue
liver GSH level ([3]; 0.6 mg/kg body weight DEM, intraperitoneal): ~0.6 μmole/g liver tissue

liver GSH level ([3]; 0.5 h after CPZ 100 mg/kg i.p.): decrease in hepatic GSH level
Compound: CN(C)CCCN1c2ccccc2Sc2ccc(Cl)cc21 [CPZ, chlorpromazine]

Compound: CC(=O)Nc1ccc(O)cc1 [APAP, acetaminophen]
hepatic GSH level of overdosed mice, of that of the control mice ([3]; APAP 300 mg/kg): ~36%
hepatic GSH level ([3]; APAP normal dose 60 mg/kg): 6.6±0.8 μmole/g tissue
hepatic GSH level ([3]; APAP overdose 300 mg/kg): 2.1±1.2 μmole/g tissue
serum GSH level [4]: didn't change significantly

tissue uptake at 24 h [5]: ~0.15 %ID/g
half-life ([6]; half-life of ICG retention (fluorescence decay) in tumor): ~3.8 h
half-life ([6]; half-life of ICG signal in background tissues): 3.5 h
ICG blood retention (AUC) [8]: ~1.9 h×% ID/g
Compound: CC1(C)C(/C=C/C=C/C=C/C=C2\N(CCCCS(=O)(=O)O)c3ccc4ccccc4c3C2(C)C)=[N+](CCCCS(=O)(=O)[O-])c2ccc3ccccc3c21 [free ICG, indocyanine green]
maximum tumor contrast index (CI) [7]: 1.8

AUC (blood retention) [9]: 7.4±0.2 % ID/g×h
Compound: [NH2][Pt]([NH2])([OH])([Cl])([Cl])[O]C(=O)CCC(=O)O [Cis-Pt prodrug, cis,cis,trans-[Pt(NH3)2Cl2(OH)(O2CCH2CH2COOH)]]
